Entries after “also recorded” stand apart in the source; their conditions may differ.
Legend:
[1] = plasma estradiol after vaginal administration (pharmacokinetic analysis); format: in vivo, human (patients)
Experimental: Pharmacokinetic analysis: From a pharmacokinetic viewpoint, the plasmic estradiol concentrations remained unquantifiable in the group of subjects after administration of low doses (2.5 μg and 5 μg) and in half of the subjects at a high dose (10 μg).
(§1) General conclusion: After a single vaginal administration of a soft capsule with 2.5 μg, 5 μg and 10 μg doses of 17β-estradiol, clinical tolerance was excellent for the group of six subjects included in the trial. Biological tolerance was also excellent.

[2] = plasma estrone after vaginal administration of 17β-estradiol; format: in vivo, human (patients)
Experimental: In all cases, the estrone concentrations never exceeded 30 pg/ml.
as §1

[3] = test system: receptors with high estradiol affinity in the vaginal epithelium; settings: cited from earlier work; for affinity for vaginal epithelium receptors (decreasing order): female
[4] = test system: vaginal estrogenic receptors; settings: cited from earlier work; for agonist/antagonist properties: estrogenic receptors; for effect on endogenous estradiol: in the presence of endogenous estrogen
[5] = test system: vulvo-vaginal mucous membrane; settings: in vivo; cited from earlier work
[6] = test system: vaginal mucous membrane / endometrium; settings: 25 μg of 17β-estradiol per vaginal tablet, cited from earlier work
[7] = 10 μg, micronized free form, vaginal

| SMILES | vaginal absorption of estradiol from soft capsules ([1]; 2.5 μg to 10 μg doses of 17β-estradiol) | systemic passage [1, 7] | time of plasmic peak after administration [1, 7] | vaginal resorption of estradiol ([1]; capsules with 2.5 μg and 5 μg doses of 17β-estradiol) | plasmic estrone amounts after vs before treatment ([2]; capsule with 10 μg dose of 17β-estradiol, the other subjects) | estrone concentrations after vs before treatment ([2]; in general, after 17β-estradiol 2.5 μg, 5 μg and 10 μg, soft capsule) | proportionality between estrone Cmax or SSC and the administered dose ([2]; in vivo) | affinity for vaginal estrogenic receptors ([3]; in words) | affinity for vaginal epithelium receptors (decreasing order) [3] | agonist/antagonist properties [4] | effect on endogenous estradiol [4] | local blood flow [5] | quantity of vaginal secretions [5] | transvaginal potential difference [5] | trophic effect in the vulvo-vaginal mucous membrane [5] | vaginal pH [5] | cytological, histological and clinical improvement in the vaginal mucous membrane ([6]; daily) | endometrial proliferation ([6]; daily) | systemic passage of 17β-estradiol ([6]; indicated by endometrial proliferation) | intrinsic activity relative to 17β-estradiol ([4]; compared with 17β-estradiol) |
| --- | --- | --- | --- | --- | --- | --- | --- | --- | --- | --- | --- | --- | --- | --- | --- | --- | --- | --- | --- | --- |
| C[C@]12CC[C@@H]3c4ccc(O)cc4CC[C@H]3[C@@H]1CC[C@@H]2O [17β-estradiol] | substantially zero | only slight systemic passage is observed | about one | zero | comparable with the amounts measured before treatment | of the same order of magnitude as those measured before treatment | no proportionality | high affinity | 17β-estradiol>estriol>estrone | physiological estrogenic agonist; also recorded: pure agonist; also recorded: complete agonist | adding effects in the presence of endogenous estrogen | increase | increase | increase the transvaginal potential difference | recognized and has been widely described | reduce the vaginal pH | desired cytological, histological and clinical improvement | endometrial proliferation was noted in certain patients | systemic passage | – |
| C[C@]12CC[C@@H]3c4ccc(O)cc4CC[C@H]3[C@@H]1CCC2=O [estrone] | – | – | – | – | – | – | – | – | 17β-estradiol>estriol>estrone | – | – | – | – | – | – | – | – | – | – | – |
| C[C@]12CC[C@@H]3c4ccc(O)cc4CC[C@H]3[C@@H]1C[C@@H](O)[C@@H]2O [estriol] | – | – | – | – | – | – | – | – | 17β-estradiol>estriol>estrone | partially agonist properties and even antagonist properties | antagonistic effect on endogenous estradiol | – | – | – | – | – | – | – | – | less active |
